# Results reported in a compilation of properties of binary mixtures (doi:10.1021/acs.jced.5b00753).
# Experiment: xn = mol fraction of the nth substance listed
# Settings: 101 kPa
smiles,measurement,setting,value
CS(C)=O + CC[n+]1ccn(C)c1.F[B-](F)(F)F,viscosity,"303.15 K, x1 = 1",1.784 mPa·s
same,viscosity,"313.15 K, x1 = 1",1.498 mPa·s
same,viscosity,"323.15 K, x1 = 1",1.27 mPa·s
same,viscosity,"333.15 K, x1 = 1",1.095 mPa·s
CC[n+]1ccn(C)c1.F[B-](F)(F)F + CC(=O)N(C)C,viscosity,"303.15 K, x2 = 0.0996",22.75 mPa·s
same,viscosity,"303.15 K, x2 = 0.2995",13.99 mPa·s
same,viscosity,"303.15 K, x2 = 0.3989",10.62 mPa·s
same,viscosity,"303.15 K, x2 = 0.5005",7.83 mPa·s
same,viscosity,"303.15 K, x2 = 0.8994",1.549 mPa·s
same,viscosity,"313.15 K, x2 = 0",20.41 mPa·s
same,viscosity,"313.15 K, x2 = 0.0996",16.86 mPa·s
same,viscosity,"313.15 K, x2 = 0.1998",13.59 mPa·s
same,viscosity,"313.15 K, x2 = 0.2995",10.65 mPa·s
same,viscosity,"313.15 K, x2 = 0.3989",8.23 mPa·s
same,viscosity,"313.15 K, x2 = 0.6996",3.147 mPa·s
same,viscosity,"313.15 K, x2 = 0.8001",2.092 mPa·s
same,viscosity,"313.15 K, x2 = 0.8994",1.328 mPa·s
same,viscosity,"323.15 K, x2 = 0.0996",12.8 mPa·s
same,viscosity,"323.15 K, x2 = 0.1998",10.45 mPa·s
same,viscosity,"323.15 K, x2 = 0.3989",6.555 mPa·s
same,viscosity,"323.15 K, x2 = 0.5005",4.982 mPa·s
same,viscosity,"323.15 K, x2 = 0.6",3.69 mPa·s
same,viscosity,"323.15 K, x2 = 0.6996",2.638 mPa·s
same,viscosity,"323.15 K, x2 = 0.8001",1.79 mPa·s
same,viscosity,"323.15 K, x2 = 0.8994",1.154 mPa·s
same,viscosity,"333.15 K, x2 = 0",12.08 mPa·s
same,viscosity,"333.15 K, x2 = 0.0996",10.09 mPa·s
same,viscosity,"333.15 K, x2 = 0.1998",8.31 mPa·s
same,viscosity,"333.15 K, x2 = 0.5005",4.122 mPa·s
same,viscosity,"333.15 K, x2 = 0.6",3.115 mPa·s
same,viscosity,"333.15 K, x2 = 0.6996",2.252 mPa·s
same,viscosity,"333.15 K, x2 = 0.8001",1.563 mPa·s
same,viscosity,"333.15 K, x2 = 0.8994",1.029 mPa·s
CC(=O)N(C)C + CC[n+]1ccn(C)c1.F[B-](F)(F)F,viscosity,"303.15 K, x1 = 1",0.862 mPa·s
same,viscosity,"313.15 K, x1 = 1",0.758 mPa·s
same,viscosity,"323.15 K, x1 = 1",0.673 mPa·s
same,viscosity,"333.15 K, x1 = 1",0.602 mPa·s
CC[n+]1ccn(C)c1.F[B-](F)(F)F + CN(C)C=O,viscosity,"303.15 K, x2 = 0",28 mPa·s
same,viscosity,"303.15 K, x2 = 0.1016",21.61 mPa·s
same,viscosity,"303.15 K, x2 = 0.2994",12.55 mPa·s
same,viscosity,"303.15 K, x2 = 0.3987",9.33 mPa·s
same,viscosity,"303.15 K, x2 = 0.5005",6.703 mPa·s
same,viscosity,"303.15 K, x2 = 0.6004",4.72 mPa·s
same,viscosity,"303.15 K, x2 = 0.7",3.214 mPa·s
same,viscosity,"303.15 K, x2 = 0.7997",2.114 mPa·s
same,viscosity,"303.15 K, x2 = 0.8999",1.305 mPa·s
same,viscosity,"313.15 K, x2 = 0.1016",16.03 mPa·s
same,viscosity,"313.15 K, x2 = 0.2016",12.53 mPa·s
same,viscosity,"313.15 K, x2 = 0.2994",9.74 mPa·s
same,viscosity,"313.15 K, x2 = 0.6004",3.867 mPa·s
same,viscosity,"313.15 K, x2 = 0.7",2.689 mPa·s
same,viscosity,"313.15 K, x2 = 0.8999",1.144 mPa·s
same,viscosity,"323.15 K, x2 = 0.1016",12.29 mPa·s
same,viscosity,"323.15 K, x2 = 0.2016",9.8 mPa·s
same,viscosity,"323.15 K, x2 = 0.3987",5.935 mPa·s
same,viscosity,"323.15 K, x2 = 0.7",2.293 mPa·s
same,viscosity,"323.15 K, x2 = 0.7997",1.567 mPa·s
same,viscosity,"333.15 K, x2 = 0",12.08 mPa·s
same,viscosity,"333.15 K, x2 = 0.1016",9.72 mPa·s
same,viscosity,"333.15 K, x2 = 0.2016",7.83 mPa·s
same,viscosity,"333.15 K, x2 = 0.2994",6.291 mPa·s
same,viscosity,"333.15 K, x2 = 0.3987",4.93 mPa·s
same,viscosity,"333.15 K, x2 = 0.5005",3.744 mPa·s
same,viscosity,"333.15 K, x2 = 0.6004",2.775 mPa·s
same,viscosity,"333.15 K, x2 = 0.7",1.993 mPa·s
same,viscosity,"333.15 K, x2 = 0.7997",1.387 mPa·s
same,viscosity,"333.15 K, x2 = 0.8999",0.899 mPa·s
CC[n+]1ccn(C)c1.F[B-](F)(F)F + CS(C)=O,viscosity,"303.15 K, x2 = 0",28 mPa·s
same,viscosity,"303.15 K, x2 = 0.1001",24.39 mPa·s
same,viscosity,"303.15 K, x2 = 0.4",14.08 mPa·s
same,viscosity,"303.15 K, x2 = 0.4996",11.13 mPa·s
same,viscosity,"303.15 K, x2 = 0.7002",6.249 mPa·s
same,viscosity,"303.15 K, x2 = 0.9002",2.928 mPa·s
same,viscosity,"313.15 K, x2 = 0",20.41 mPa·s
same,viscosity,"313.15 K, x2 = 0.1001",17.83 mPa·s
same,viscosity,"313.15 K, x2 = 0.2007",15.25 mPa·s
same,viscosity,"313.15 K, x2 = 0.4",10.59 mPa·s
same,viscosity,"313.15 K, x2 = 0.4996",8.46 mPa·s
same,viscosity,"313.15 K, x2 = 0.6002",6.575 mPa·s
same,viscosity,"313.15 K, x2 = 0.7002",4.936 mPa·s
same,viscosity,"313.15 K, x2 = 0.7996",3.515 mPa·s
same,viscosity,"313.15 K, x2 = 0.9002",2.385 mPa·s
same,viscosity,"323.15 K, x2 = 0",15.35 mPa·s
same,viscosity,"323.15 K, x2 = 0.1001",13.54 mPa·s
same,viscosity,"323.15 K, x2 = 0.2007",11.62 mPa·s
same,viscosity,"323.15 K, x2 = 0.2996",9.91 mPa·s
same,viscosity,"323.15 K, x2 = 0.4996",6.667 mPa·s
same,viscosity,"323.15 K, x2 = 0.6002",5.296 mPa·s
same,viscosity,"323.15 K, x2 = 0.7002",3.971 mPa·s
same,viscosity,"323.15 K, x2 = 0.7996",2.893 mPa·s
same,viscosity,"333.15 K, x2 = 0",12.08 mPa·s
same,viscosity,"333.15 K, x2 = 0.1001",10.64 mPa·s
same,viscosity,"333.15 K, x2 = 0.2007",9.18 mPa·s
same,viscosity,"333.15 K, x2 = 0.2996",7.87 mPa·s
same,viscosity,"333.15 K, x2 = 0.4",6.571 mPa·s
same,viscosity,"333.15 K, x2 = 0.4996",5.382 mPa·s
same,viscosity,"333.15 K, x2 = 0.6002",4.335 mPa·s
same,viscosity,"333.15 K, x2 = 0.7002",3.294 mPa·s
same,viscosity,"333.15 K, x2 = 0.7996",2.438 mPa·s
CN(C)C=O + CC[n+]1ccn(C)c1.F[B-](F)(F)F,viscosity,"303.15 K, x1 = 1",0.744 mPa·s
same,viscosity,"323.15 K, x1 = 1",0.6 mPa·s
